Measurements published in US11479587B2, “Cationic intrinsically disordered antimicrobial peptides” (priority 2016, dated 2022).
Marks after values point to notes of the source that are not given here. No end group written: not given here. *: point of attachment. Biotin = O=C1N[C@H]2[C@H](CS[C@H]2CCCCC(=O)*)N1

Tested on: P. aeruginosa ATCC 10145
Assay: CFU-assay, P. aeruginosa-cidal activity
Assay type: cell-based, Pseudomonas aeruginosa
[1] = pH 5.5, 0.25% glucose, listed as HR 1-18 G+H

Substance | MBC90 (pH 5.5, 1% TSB) | MBC100 (pH 5.5, 1% TSB) | MBC90 (pH 5.5, 0.25% glucose) | MBC100 (pH 5.5, 0.25% glucose) | also measured
Biotin-GRHGSGLGHSSSHGQHGSGSGR [Biotin-HR 1-18] | – | – | – | – | MBC100 (pH 5.0, 0.25% glucose): >300 µg/mL
GGSRSGQSSRGERHGSSSGSSSH (Modified peptide derived from human hornerin (HR 1-11 H1-GH2606G))) [HR 1-11 H1-G H2606G] | >300* μg/ml | >300* μg/ml | – | – | –
GHHGGGGGHGGGHGGHGGGGGH (Modified peptide derived from human hornerin (HR 1-18 G+H)) [HR 1-18 G + H] | – | – | <0.006 µM | 0.09 µM | MBC90 (pH 5.0, 0.25% glucose): <0.006 µg/mL; MBC100 (pH 5.0, 0.25% glucose): 0.09 µg/mL; MBC90 [1]: < 0.019 µg/mL; MBC100 [1]: 0.075 µg/mL; MBC90 (pH 7.0, 0.25% glucose): >300 µg/mL; MBC100 (pH 7.0, 0.25% glucose): >300 µg/mL
GHHGGHGGHGHGH (Synthetic cationic intrinsically disordered antimicrobial peptide (GH13)) | – | – | 0.030 µM | 0.12 µM | –
GKKGGKGGKGKGK (Synthetic cationic intrinsically disordered antimicrobial peptide (K-GR13)) | – | – | 0.063 µM | 2.0 µM | –
GOOGGOGGOGOGO [Orn-GR13] | – | – | 0.034 µM | 1.1 µM | –
GRGGSGLGGSSSGGQGGSGSGRSSSRGPY (Modified peptide derived from human hornerin (HR 1-17 4H-4G all H vs G)) | – | – | – | – | MBC90 (pH 5.0, 0.25% glucose): 75 µg/mL; MBC100 (pH 5.0, 0.25% glucose): >300 µg/mL
GRHGGGGGHGGGHGGHGGGGGR (Modified peptide derived from human hornerin (HR 1-18 L-G/Q-G/6S-6G)) | – | – | – | – | MBC90 (pH 5.0, 0.25% glucose): 0.038 µg/mL; MBC100 (pH 5.0, 0.25% glucose): 0.15 µg/mL; MBC90 (pH 7.0, 0.25% glucose): >300 µg/mL; MBC100 (pH 7.0, 0.25% glucose): >300 µg/mL
GRHGSGGGHSSSHGGHGSGSGR (Modified peptide derived from human hornerin (HR 1-18 L-G/Q-G)) | – | – | – | – | MBC90 (pH 5.0, 0.25% glucose): 0.038 µg/mL; MBC100 (pH 5.0, 0.25% glucose): 0.15 µg/mL; MBC90 (pH 7.0, 0.25% glucose): >300 µg/mL; MBC100 (pH 7.0, 0.25% glucose): >300 µg/mL
GRHGSGLGHSSSH (Peptide derived from human hornerin (HR 1-37 HRNR 2656-2668)) [HR 1-37 HRNR2656-2668] | – | – | 9.38 µg/mL | >300 µg/mL | –
GRHGSGLGHSSSHGQH (Peptide derived from human hornerin (HR 1-25 HRNR 2656-2671)) [HR 1-25 HRNR2656-2671] | 0.3 µg/mL | 4.7 µg/mL | – | – | –
GRHGSGSGHSSSHGQHGSGSGR (Peptide derived from human hornerin (HRNR 2186-2207)) [HRNR2186-2207] | – | – | – | 4.7-9.37* μg/ml | –
GRHGSGSGQSSSYGPYGSGSGWSSSRGPY (Peptide derived from human hornerin (HRNR 1952-1980)) [HRNR1952-1980] | – | >300 µg/mL | – | – | –
GRHGSGSGQSSSYGPYRSGSGWSSSRGPY (Peptide derived from human hornerin (HRNR 1013-1041)) [HRNR1013-1041] | – | >300 µg/mL | – | – | –
GRHGSGSGQSSSYSPYGSGSGWSSSR (Peptide derived from human hornerin (HRNR 2422-2447)) [HRNR2422-2447] | – | – | – | >300 µg/mL | –
GRHGSGSGQSSSYSPYGSGSGWSSSRGPY (Peptide derived from human hornerin (HRNR 2422-2450)) [HRNR2422-2450] | – | >300 µg/mL | – | – | –
GSGSRQSLSYGRHGSGSGR (Modified peptide derived from human hornerin (HR 2-4L HRNR 1132-1150 P1139L)) [HR 2-4L HRNR1132-1150 P1139L] | 75 µg/mL | >300 µg/mL | – | – | –
GSGSRQSPSHGRHGSGSGR (Modified peptide derived from human hornerin (HR 2-4H HRNR 1132-1150 Y1141H)) [HR 2-4H HRNR1132-1150 Y1141H] | 75 µg/mL | >300 µg/mL | – | – | –
GSGSRQSPSRGRHGSGSGR (Modified peptide derived from human hornerin (HR 2-4R HRNR 1132-1150 Y1141R)) [HR 2-4R HRNR1132-1150 Y1141R] | – | >300 µg/mL | – | – | –
GSGSRQSPSYGRHGSGSGRSSSSGQH (Peptide derived from human hornerin (HR 2-11 HRNR 1132-1157)) [HR 2-11 HRNR1132-1157] | 37.5 µg/mL | >300 µg/mL | – | – | –
GSGSRQSPSYGRQGSGSGR (Modified peptide derived from human hornerin (HR 2-4Q HRNR 1132-1150 H1144Q)) [HR 2-40 HRNR1132-1150 H1144Q] | >300 µg/mL | >300 µg/mL | – | – | –
GSGSRQSSGHGRQGSGSGQ (Modified peptide derived from human hornerin (HR 1-16 HRNR 2633-2651)) [HR 1-16 HRNR2633-2651] | >300 µg/mL | >300 µg/mL | – | – | –
GSGSRQSSSYGRHGSGSGR (Modified peptide derived from human hornerin (HR 2-4S HRNR 1132-1150 P1139S)) [HR 2-4S HRNR1132-1150 P1139S] | 150 µg/mL | >300 µg/mL | – | – | –
GSRTAGRRGSGH (Peptide derived from human filaggrin-2 (FLG-2 2094-2105)) [FLG-22094-2105] | – | – | – | >300 µg/mL | –

Substance | MBC90 (pH 5.5, 1% TSB) | MBC100 (pH 5.5, 1% TSB) | MBC90 (pH 5.5, 0.25% glucose) | MBC100 (pH 5.5, 0.25% glucose) | also measured
HAHSGHGQSTQR (Peptide derived from human filaggrin-2 (FLG-2 2082-2093)) [FLG-22082-2093] | – | – | 0.15 µg/mL | 2.35 µg/mL | –
HAHSGHGQSTQRGSR (Peptide derived from human filaggrin-2 (FLG-2 2082-2096)) [FLG-22082-2096] | – | – | 0.15 µg/mL | 1.18 µg/mL | –
HAHYGYGQSTQRGSRTTGRRGSGH (Peptide derived from human filaggrin-2 (FLG-2 2232-2255)) [FLG-22232-2255] | – | – | 0.075 µg/mL | 0.59 µg/mL | –
HGH (Synthetic cationic intrinsically disordered antimicrobial peptide (GH3)) | – | – | 200 µM | >860 µM | –
HGHGH (Synthetic cationic intrinsically disordered antimicrobial peptide (GH5)) | – | – | 6.0 µM | 138 µM | –
HGHGHGH (Synthetic cationic intrinsically disordered antimicrobial peptide (GH7)) | – | – | 0.25 µM | 7.2 µM | –
HGHGHGHGH (Synthetic cationic intrinsically disordered antimicrobial peptide (GH9)) | – | – | 0.18 µM | >400, μM | MBC99 (pH 5.5, 0.25% glucose): MBC99: 99 μM
HGQSTQRGSRTAGRRGSGH (Peptide derived from human filaggrin-2 (FLG-2 2087-2105)) [FLG-22087-2105] | – | – | 0.075 µg/mL | 1.18 µg/mL | –
HGSGLGHSSSHGQHGSGSGR (Peptide derived from human hornerin (HR 1-8 HRNR2658-2677)) | – | >300 µg/mL | 4.7 µg/mL | >300 µg/mL | –
HGSGSGQSSRGERHGSSSGSSSH (Modified peptide derived from human hornerin (HR 1-11 R1-G R2609G)) | >300* μg/ml | >300* μg/ml | – | – | –
HGSRSGQSSGGERHGSSSGSSSH (Modified peptide derived from human hornerin (HR 1-11 R2-G R2615G)) | 75 µg/mL | >300 µg/mL | – | – | –
HGSRSGQSSGGGRHGSSSGSSSH (Modified peptide derived from human hornerin (HR 1-11 E-G E2617G)) | 0.59 µg/mL | >300 µg/mL | – | – | –
HGSRSGQSSRGEGHGSSSGSSSH (Modified peptide derived from human hornerin (HR 1-11 R3-G R2618G)) | 75 µg/mL | >300 µg/mL | – | – | –
HGSRSGQSSRGERGGSSSGSSSH (Modified peptide derived from human hornerin (HR 1-11 H2-G H2619G)) | 75 µg/mL | >300 µg/mL | – | – | –
HGSRSGQSSRGERHGSSSGSSSG (Modified peptide derived from human hornerin (HR 1-11 H3-G H2628G)) | 18.75 µg/mL | >300 µg/mL | – | – | –
HGSSSGSSSHYGQHGSGSR (Peptide derived from human hornerin (HR 1-4 HRNR 2619-2637)) [HR 1-4 HRNR2619-2637] | 150 µg/mL | >300 µg/mL | – | – | –
HR 2-8: CIDAMP tested alone and in 1:1 mixture with HR 1-8 HRNR2658-2677 (GSGSRQSPSYGR; Peptide derived from human hornerin (HR 2-8)) | 18.75 µg/mL | >300 µg/mL | – | – | –
HSQRGSGSRQSPSYGRH (Modified peptide derived from human hornerin (HR 2-16 HRNR1128-1144)) | – | – | – | 37.5 (only at μg/ml | –
HSSSHGQHGSGSGR (Peptide derived from human hornerin (HR 1-38 HRNR 2664-2677)) [HR 1-38 HRNR2664-2677] | – | – | – | >300 µg/mL | –
HTHSGHAHGQAGSQHGESGSSVHER (Peptide derived from human filaggrin-2 (FLG-2 2044-2068)) [FLG-22044-2068] | – | – | 0.038 µg/mL | 0.3 µg/mL | –
HTHSGHTHGQAGSHYPESGSSVHER (Peptide derived from human filaggrin-2 (FLG-2 1969-1993)) [FLG-21969-1993] | – | – | 0.038 µg/mL | 0.3 µg/mL | –
HTHSGHTHGQARSQHGESESIVHER (Peptide derived from human filaggrin-2 (FLG-2 1742-1766)) [FLG-21742-1766] | – | – | 0.038 µg/mL | 0.15 µg/mL | –
HTHSGHTHGQSGSQHGESESIIHDR (Peptide derived from human filaggrin-2 (FLG-2 1515-1539)) [FLG-21515-1539] | – | – | 0.075 µg/mL | 0.59 µg/mL | –
